ChEMBL document CHEMBL1201862, “PubChem BioAssay data set” (2004)
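All cell lines were grown in 96-well plates and treated with compound for 48 hours. GI50 = concentration required for 50% inhibition of growth.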 The source made the active and inactive calls. Rule as the data show it: active = GI50 up to about 1.1 µM and inactive = higher.

Legend:
Assay in all cases: DTP human tumour cell line panel, 48 h
M14 = system: M14
HCC 2998 = system: HCC 2998
SNB-19 = system: SNB-19
HCT-116 = system: HCT-116
ACHN = system: ACHN
U-251 = system: U-251
NCI-H23 = system: NCI-H23
A549 = system: A549
SW-620 = system: SW-620
UACC-62 = system: UACC-62
786-0 = system: 786-0
OVCAR-5 = system: OVCAR-5
SNB-75 = system: SNB-75
UACC-257 = system: UACC-257
SK-MEL-2 = system: SK-MEL-2
T47D = system: T47D
MCF7 = system: MCF7
MDA-MB-435 = system: MDA-MB-435
PC-3 = system: PC-3
NCI/ADR-RES = system: NCI/ADR-RES

Measured: GI50

COC(=O)/C(=N\NC(=O)c1ccccc1O)C(C#N)c1ccccc1 (stereo not given)
inactive: M14 31.4 µM | HCC 2998 > 50 µM | SNB-19 23.2 µM | HCT-116 17.3 µM | ACHN 19.7 µM | U-251 32.1 µM | NCI-H23 20.1 µM | A549 16.6 µM | SW-620 23.5 µM | UACC-62 12.1 µM | 786-0 17.4 µM | OVCAR-5 20.9 µM | SNB-75 22.5 µM | UACC-257 25.9 µM | SK-MEL-2 > 50 µM

CN1Cc2ccccc2S(=O)(=O)n2cccc2C1=O
inactive: T47D 32.8 µM | HCT-116 > 100 µM | ACHN > 100 µM | U-251 > 100 µM | A549 > 100 µM | SW-620 > 100 µM | UACC-62 > 100 µM | 786-0 > 100 µM | MCF7 > 100 µM | OVCAR-5 > 100 µM | SNB-75 > 100 µM | MDA-MB-435 > 100 µM | PC-3 > 100 µM | UACC-257 > 100 µM | SK-MEL-2 > 100 µM

O=C1CC2(CCNCC2)C(=O)N1N1CCOCC1
inactive: M14 > 100 µM | HCC 2998 > 100 µM | SNB-19 > 100 µM | T47D > 100 µM | HCT-116 > 100 µM | ACHN > 100 µM | U-251 > 100 µM | NCI-H23 > 100 µM | A549 > 100 µM | SW-620 > 100 µM | UACC-62 > 100 µM | 786-0 > 100 µM | MCF7 > 100 µM | OVCAR-5 > 100 µM | SNB-75 > 100 µM | PC-3 > 100 µM | UACC-257 > 100 µM | NCI/ADR-RES > 100 µM | SK-MEL-2 > 100 µM

C/C(=C/CC[C@](C)(OC1OC(CO)C(O)C(O)C1O)[C@H]1CC[C@]2(C)[C@@H]1CC[C@@H]1[C@@]3(C)CC[C@H](O)C(C)(C)[C@@H]3C[C@H](O)[C@]12C)CO (stereo not given in full)
inactive: M14 37.5 µM | SNB-19 22 µM | T47D 16.9 µM | HCT-116 18.2 µM | ACHN 40.6 µM | U-251 13.6 µM | NCI-H23 45.1 µM | A549 39.5 µM | SW-620 27.4 µM | UACC-62 19.1 µM | 786-0 12.6 µM | MCF7 34.8 µM | OVCAR-5 49.8 µM | SNB-75 8.43 µM | MDA-MB-435 36 µM | PC-3 31.5 µM | UACC-257 22.6 µM | NCI/ADR-RES 47.4 µM

COc1cc(OC)c(OC)cc1/C=C/c1cc[n+](C)c2ccccc12
inactive: M14 60.8 µM | HCC 2998 52.6 µM | SNB-19 8.45 µM | T47D 33.4 µM | HCT-116 27.8 µM | ACHN > 100 µM | U-251 5.02 µM | NCI-H23 12.1 µM | A549 25.9 µM | SW-620 36.2 µM | 786-0 25.2 µM | MCF7 49.2 µM | OVCAR-5 > 100 µM | SNB-75 47.4 µM | PC-3 20.7 µM | UACC-257 16.1 µM | NCI/ADR-RES > 100 µM

COc1ccc(C)cc1N1C(=O)C2ON(Cc3ccc(CC(N)=O)cc3)C(c3c4ccccc4c(Cl)c4ccccc34)C2C1=O (stereo not given)
inactive: M14 19.3 µM | SNB-19 32.1 µM | T47D 27.4 µM | HCT-116 15.1 µM | ACHN 25.4 µM | U-251 24.3 µM | NCI-H23 29.3 µM | A549 55.2 µM | SW-620 28.4 µM | UACC-62 19.7 µM | 786-0 21.4 µM | MCF7 26.4 µM | OVCAR-5 23.6 µM | SNB-75 12.4 µM | MDA-MB-435 21.9 µM | PC-3 28.1 µM | UACC-257 15 µM | NCI/ADR-RES 26.1 µM | SK-MEL-2 21.1 µM

CC(=O)OCCn1cnc2c(NCC=C(C)C)ncnc21
inactive: M14 > 100 µM | SNB-19 > 100 µM | T47D > 100 µM | HCT-116 > 100 µM | ACHN > 100 µM | NCI-H23 > 100 µM | A549 > 100 µM | SW-620 > 100 µM | 786-0 > 100 µM | MCF7 > 100 µM | OVCAR-5 > 100 µM | SNB-75 > 100 µM | MDA-MB-435 > 100 µM | PC-3 > 100 µM | UACC-257 > 100 µM | NCI/ADR-RES > 100 µM

COc1ccc(C#CCC(OC2OC(CO)C(O)C(O)C2O)C(O)c2ccc(OC)c(OC)c2)cc1OC (stereo not given)
inactive: M14 > 100 µM | HCC 2998 > 100 µM | SNB-19 > 100 µM | HCT-116 > 100 µM | ACHN > 100 µM | U-251 > 100 µM | NCI-H23 > 100 µM | A549 > 100 µM | SW-620 > 100 µM | UACC-62 61.7 µM | 786-0 > 100 µM | OVCAR-5 > 100 µM | SNB-75 > 100 µM | UACC-257 > 100 µM | SK-MEL-2 > 100 µM

C/C(=N\n1c(Cc2ccccc2)n[nH]c1=O)c1ccc([N+](=O)[O-])cc1
inactive: M14 > 100 µM | SNB-19 > 100 µM | T47D 94 µM | HCT-116 > 100 µM | U-251 > 100 µM | NCI-H23 > 100 µM | A549 > 100 µM | SW-620 > 100 µM | UACC-62 > 100 µM | 786-0 > 100 µM | MCF7 21 µM | OVCAR-5 > 100 µM | MDA-MB-435 > 100 µM | PC-3 > 100 µM | UACC-257 > 100 µM | NCI/ADR-RES > 100 µM | SK-MEL-2 > 100 µM

NNC(=O)N/N=C1\C(=O)N(c2nccs2)C(=O)C(=O)C1c1nc2ccccc2s1 (stereo not given)
inactive: M14 > 100 µM | HCC 2998 > 100 µM | SNB-19 > 100 µM | HCT-116 > 100 µM | ACHN > 100 µM | U-251 > 100 µM | NCI-H23 > 100 µM | A549 > 100 µM | SW-620 > 100 µM | UACC-62 > 100 µM | 786-0 > 100 µM | OVCAR-5 > 100 µM | SNB-75 > 100 µM | UACC-257 > 100 µM | SK-MEL-2 > 100 µM

C=C(CBr)CCCOCc1ccccc1
inactive: M14 16.7 µM | SNB-19 15.6 µM | T47D 37.8 µM | HCT-116 41.6 µM | ACHN 14.1 µM | U-251 34.7 µM | NCI-H23 13.9 µM | A549 38.4 µM | SW-620 32.7 µM | UACC-62 18.7 µM | 786-0 36.6 µM | MCF7 30.5 µM | OVCAR-5 18.7 µM | MDA-MB-435 28.4 µM | PC-3 19.7 µM | UACC-257 33.9 µM | NCI/ADR-RES 20.2 µM | SK-MEL-2 18.6 µM

O=S(=O)(c1ccccc1)n1c2ccc(Br)cc2c2nc3ccccc3nc21
inactive: M14 > 100 µM | HCC 2998 > 100 µM | SNB-19 > 100 µM | T47D > 100 µM | HCT-116 > 100 µM | ACHN > 100 µM | U-251 > 100 µM | NCI-H23 > 100 µM | A549 > 100 µM | SW-620 > 100 µM | UACC-62 > 100 µM | 786-0 > 100 µM | OVCAR-5 > 100 µM | SNB-75 > 100 µM | MDA-MB-435 > 100 µM | PC-3 > 100 µM | UACC-257 > 100 µM | NCI/ADR-RES > 100 µM | SK-MEL-2 > 100 µM

CCOC(=O)c1nc2ccc(Cl)cc2c2c1Cc1ccccc1-2
inactive: M14 > 100 µM | HCC 2998 > 100 µM | SNB-19 > 100 µM | HCT-116 > 100 µM | ACHN > 100 µM | U-251 > 100 µM | NCI-H23 > 100 µM | A549 > 100 µM | SW-620 > 100 µM | UACC-62 > 100 µM | 786-0 > 100 µM | OVCAR-5 > 100 µM | SNB-75 70 µM | UACC-257 75.3 µM | SK-MEL-2 > 100 µM

Cc1cn(CCCCC2=NCCCN2)c(=O)[nH]c1=O
inactive: M14 > 25.2 µM | HCC 2998 > 26.3 µM | SNB-19 > 52.8 µM | HCT-116 > 23.3 µM | ACHN > 25.2 µM | U-251 > 30.5 µM | NCI-H23 > 31.2 µM | A549 > 35.1 µM | SW-620 > 28.3 µM | UACC-62 > 42.2 µM | 786-0 > 23.9 µM | MCF7 > 26.3 µM | OVCAR-5 > 30.3 µM | MDA-MB-435 > 26.7 µM | PC-3 > 26.7 µM | UACC-257 > 26.2 µM | NCI/ADR-RES > 34.8 µM | SK-MEL-2 > 26.9 µM

O=S(=O)(O)c1ccc2c(/N=N/c3ccccc3Cl)c(O)ccc2c1
inactive: M14 > 100 µM | SNB-19 > 100 µM | T47D > 100 µM | HCT-116 > 100 µM | ACHN > 100 µM | U-251 > 100 µM | NCI-H23 > 100 µM | A549 > 100 µM | SW-620 > 100 µM | UACC-62 > 100 µM | 786-0 > 100 µM | OVCAR-5 > 100 µM | SNB-75 > 100 µM | MDA-MB-435 > 100 µM | PC-3 > 100 µM | UACC-257 > 100 µM | NCI/ADR-RES > 100 µM | SK-MEL-2 > 100 µM

CC(C)=CCC/C(C)=C/C=C/C(C)=C/C=C/C(C)=C/C=C/C=C(C)/C=C/C=C(C)/C=C/[C@H]1C(C(C)(C)O)CC[C@]1(C)O (stereo not given in full)
inactive: M14 28.8 µM | HCC 2998 15.5 µM | T47D 22.9 µM | HCT-116 15.7 µM | ACHN 22 µM | U-251 20.7 µM | NCI-H23 20.2 µM | SW-620 25.8 µM | 786-0 21.4 µM | MCF7 16.4 µM | OVCAR-5 40 µM | MDA-MB-435 23 µM | PC-3 30.3 µM | UACC-257 21.8 µM | NCI/ADR-RES 32.4 µM | SK-MEL-2 37 µM
